# From PubChem BioAssay (NCI)
# Several values for one entry are separate records, joined by “and”; a condition that tells them apart may be missing. Equal values may be shown once.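 Exposure lasted 48 hours, with cells grown in 96-well plates and compounds tested at five concentrations. At the GI50, growth is halved. TGI marks complete inhibition of growth.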
# How the values were obtained:
# Assay in all cases: NCI tumour cell line growth inhibition, 48 h
# SK-MEL-2 melanoma = test system: SK-MEL-2 melanoma
# UACC-62 melanoma = test system: UACC-62 melanoma
# HCT-15 colon = test system: HCT-15 colon
# SF-295 CNS = test system: SF-295 CNS
# DU-145 prostate = test system: DU-145 prostate
# OVCAR-4 ovarian = test system: OVCAR-4 ovarian
# SK-MEL-5 melanoma = test system: SK-MEL-5 melanoma
# SNB-19 CNS = test system: SNB-19 CNS
# OVCAR-3 ovarian = test system: OVCAR-3 ovarian
# 786-0 renal = test system: 786-0 renal
Structure (SMILES),GI50 (SK-MEL-2 melanoma) [µM],TGI (SK-MEL-2 melanoma),GI50 (UACC-62 melanoma) [µM],TGI (UACC-62 melanoma),GI50 (HCT-15 colon) [µM],TGI (HCT-15 colon),GI50 (SF-295 CNS) [µM],TGI (SF-295 CNS),GI50 (DU-145 prostate) [µM],TGI (DU-145 prostate),GI50 (OVCAR-4 ovarian) [µM],TGI (OVCAR-4 ovarian),GI50 (SK-MEL-5 melanoma) [µM],TGI (SK-MEL-5 melanoma),GI50 (SNB-19 CNS) [µM],TGI (SNB-19 CNS),GI50 (OVCAR-3 ovarian) [µM],TGI (OVCAR-3 ovarian) [µM],GI50 (786-0 renal) [µM],TGI (786-0 renal)
COc1ccccc1CN=C1NC(=O)/C(=C/c2ccc3ncccc3c2)S1,10.4,> 25 µM,8.61,> 25 µM,4.55,> 25 µM,5.7,> 21 µM,11,> 25 µM,8.88,> 25 µM,12.4,> 21.5 µM,4.01,> 25 µM,7.13,24.9,10.9,> 25 µM
COc1ccc2c(c1)[n+]([O-])c(/C(C)=N/NC(N)=S)c(C)[n+]2[O-],–,> 100 µM,–,> 100 µM,–,> 100 µM,–,> 100 µM,–,> 100 µM,–,> 100 µM,–,> 69.1 µM,–,> 100 µM,–,> 95.7,–,> 100 µM
Oc1ccccc1/C=N/Nc1nc2ccccc2s1,8.74,> 100 µM,8.97,> 100 µM,2.17,> 100 µM,5.3,> 100 µM,9.35,> 100 µM,2.31,> 100 µM,7.36,> 100 µM,18.7,> 100 µM,2.46,34.7,7.96,89 µM
O=C1c2cccc3c([N+](=O)[O-])ccc(c23)C(=O)N1CCCCl,> 10,> 10 µM,4.48,> 10 µM,5.01,> 10 µM,> 10,> 10 µM,4.56,> 10 µM,4.77,> 10 µM,> 10,> 10 µM,> 10,> 10 µM,2.2,4.72,> 10,> 10 µM
COc1ccc(NC(=O)COc2ccccc2)c(C(N)=O)c1,0.729,> 83.2 µM,1.18,> 81.2 µM,0.523,> 100 µM,0.644,16.5 µM,2.31,> 62.2 µM,> 44.8,> 100 µM,1.11,> 76.2 µM,1.9,> 68.9 µM,0.403,2.88,2.18,49.4 µM
Cc1cc(NCCCNc2ccnc3cc(Cl)ccc23)nc(Nc2ccc(C(=O)N3CCCCC3)cc2)n1,2.17,4.29 µM,2.02,3.81 µM,2.52,6.79 µM,2.02,3.89 µM,3.42,13.1 µM,2.83,12.6 µM,1.93,3.34 µM,3.55,12.5 µM,2.36,5.91,1.83,3.72 µM
CC1=CC[C@@H]2[C@@H](CC[C@@]2(C)O)C(C)(C)[C@H]1CC[C@@H]1[C@@]2(C)CC[C@@H](O)C(C)(C)O[C@@H]2CC[C@]1(C)O,–,> 100 µM,–,31.9 µM,–,38 µM,–,> 100 µM,–,> 100 µM,–,> 100 µM,–,27.8 µM,–,46.2 µM,–,> 100,–,34.8 µM
O=C(/C=C/c1ccccc1)Nc1ncc(Cc2ccccc2)s1,0.479,> 69.1 µM,0.125,4.28 µM,0.066,> 100 µM,0.202,1.96 µM,0.396,> 100 µM,1.38,6.54 µM,0.196,10.1 µM,0.392,> 52.3 µM,0.258,1.44,0.598,10.7 µM
COc1cc(/C=C/C(=O)c2ccc(F)cc2)ccc1OCCCCOc1cc2c(cc1OC)C(=O)N1CCCC1C=N2 (centres undefined),1.33,12.8 µM,0.777,11.4 µM,1.07,> 28.2 µM,0.707,–,0.994,5.46 µM,2.99,> 23.9 µM,0.758,5.37 µM,1.04,> 19.9 µM,0.808,2,0.989,7.74 µM
COC1=CC(=O)c2c(O)c3c(c(O)c2C1=O)OC1(Oc2c(cc4cc(C)oc(=O)c4c2O)CC1O)C3O (centres undefined),–,> 100 µM,–,> 100 µM,–,> 100 µM,–,> 100 µM,–,> 100 µM,–,67.5 µM,–,95 µM,–,62.4 µM,–,> 100,–,> 100 µM
O=c1ncc(I)c[nH]1,> 100,> 100 µM,> 100,> 100 µM,> 100,> 100 µM,> 100,> 100 µM,> 100,> 100 µM,> 100,> 100 µM,> 100,> 100 µM,> 100,> 100 µM,> 100,> 100,> 100,> 100 µM
O=S1(=O)OCc2ccccc21,–,> 100 µM,–,> 100 µM,–,> 100 µM,–,> 100 µM,–,> 100 µM,–,> 100 µM,–,> 100 µM,–,> 100 µM,–,> 100,–,> 100 µM
CS(=O)(=O)OCCCCOS(C)(=O)=O,> 1000,250 µM and > 1000 µM,472,250 µM and > 1000 µM,> 903,236 µM and > 1000 µM,423,237 µM and > 1000 µM,774,250 µM and > 1000 µM,> 1000,223 µM and > 1000 µM,520,242 µM and > 1000 µM,> 862,233 µM and > 1000 µM,> 1000,> 1000,539,250 µM and > 1000 µM
CC(C)(C)n1nc(C2CC2)cc1NC(=O)Nc1ccc(Cl)cc1,–,> 100 µM,–,> 100 µM,–,> 100 µM,–,> 100 µM,–,> 100 µM,–,> 100 µM,–,> 100 µM,–,> 100 µM,–,> 100,–,> 100 µM
